From patent US7157083B2, “Compositions and methods for treating retroviral infections” (priority 1998, dated 2007)
Like-named read-outs stand apart in the source and are kept apart here.

Legend:
[1] = test system: ROJO (low passage HIV-1); assay: Study 4 sensitization, Turpin and standard macrophages: RT activity after Rojo challenge; type: cell-based; conditions: Rojo Sensitized
Experimental: Percent virus control (% VC) in the following tables is the mean RT activity (cpm) as a percentage of a virus control. Percent cell control (% CC) is the mean XTT absorbance as a percentage of a cell control.
The macrophage plates were then washed with HBSS multiple times. Fresh mixed pha blast PBMCs (5×10e4/well) were placed on the macrophage cells, allowed to incubate for 72 hours and then harvested and reset in a fresh 96 well plate. The PBMCs were then challenged overnight with the respective virus (IIIB or Rojo) at a standard MOI for that virus. The PBMCs were 5× in plate spin washed with DPBS, incubated 24 hours, at which time 5×10e4 fresh pha blast PBMCs/well were added. The culture was incubated an additional 6 days and then assayed for RT activity.
Where viability corrections were conducted, they were performed by dividing the RT CPM value by the toxicity absorbance in order to compensate for well to well variations noted in the cell titer toxicity noted.

[2] = test system: HIV-1; assay: Study 5 overall: resistance of naive PBMCs to HIV-1 challenge (RT activity and P-24 assay); type: cell-based; conditions: monocytes and macrophages incubated with hyaluronidase treated heat inactivated or Aldrathiol-2 treated virus
Experimental: Control groups were not treated with the enzyme. The virus was then titrated on macrophage/monocyte cultures and incubated at 37° C. for 48 hours at which time the macrophages and monocytes were washed 3×, resuspended and placed in fresh wells. Naïve PBMC's were overlayed on the macrophage/monocyte cultures and incubated at 37° C. for 72 hours. The PBMC's were then separated, washed and placed in fresh wells with fresh medium and rested for 48 hours. After a 48 hour rest period, the PBMC's were challenged with HIV-1 with and without PHA, I1-2, or both. […] These various assays are presented below in Table 10 .

[3] = test system: HIV-1; conditions: Assay #8
Experimental: Reverse transcriptase (RT) activity was measured in cell-free supernatants. Tritiated thymidine triphosphate (NEN) (TTP) was resuspended in distilled H2O at 5 Cl/mL. Poly rA and oligo dT were prepared as a stock solution which was kept at −20° C. The RT reaction buffer was prepared fresh on a daily basis and consists of 125 μL 1.0 M EGTA, 125 μL d H2O, 110 μL 10% SDS, 50 μL 1.0 M Tris (pH 7.4), 50 μL 1.0 M DTT, and 40μ1.0 M MgCl2. These three solutions were mixed together in a ratio of 2 parts TTP, 1 part poly rA:oligo dT, and 1 part reaction buffer. Ten microliters of this reaction mixture was placed in a round bottom microtiter plate and 15 μL of virus containing supernatant was added and mixed. The plate was incubated at 37° C. in a water bath with a solid support to prevent submersion of the plate and incubated for 60 minutes. Following reaction, the reaction volume was spotted onto pieces of DE81 paper, washed 5 times for 5 minutes each in a 5% sodium phosphate buffer, 2 times for 1 minute each in distilled water, 2 times for 1 minute each in 70% ethanol, and then dried. Opti-Fluor O was added to each sample and incorporated radioactivity was quantitated utilizing a Wallace 1450 Microbetaplus liquid scintillation counter.

Hyaluronidase
RT activity % VC ([1]; 0.390625 μg/mL, Standard): 50.4%
RT activity % VC ([1]; 0.390625 μg/mL, Turpin): 69.6%
RT activity % VC ([1]; 0.78125 μg/mL, Standard): 59.9%
RT activity % VC ([1]; 0.78125 μg/mL, Turpin): 48.6%
RT activity % VC ([1]; 1.5625 μg/mL, Turpin): 61.1%
RT activity % VC ([1]; 3.125 μg/mL, Standard): 55.8%
RT activity % VC ([1]; 3.125 μg/mL, Turpin): 45.6%
RT activity % VC ([1]; 6.25 μg/mL, Standard): 57.7%
RT activity % VC ([1]; 6.25 μg/mL, Turpin): 39.4%
RT activity % VC ([1]; 25 μg/mL, Standard): 21.0%
RT activity % VC ([1]; 25 μg/mL, Turpin): 15.5%
RT activity % VC ([1]; viability corrected, 0.097656 μg/mL, Standard): 66.0%
RT activity % VC ([1]; viability corrected, 0.097656 μg/mL, Turpin): 94.1%
RT activity % VC ([1]; viability corrected, 0.390625 μg/mL, Standard): 52.2%
RT activity % VC ([1]; viability corrected, 0.78125 μg/mL, Standard): 55.1%
RT activity % VC ([1]; viability corrected, 0.78125 μg/mL, Turpin): 56.9%
RT activity % VC ([1]; viability corrected, 1.5625 μg/mL, Standard): 57.0%
RT activity % VC ([1]; viability corrected, 1.5625 μg/mL, Turpin): 69.1%
RT activity % VC ([1]; viability corrected, 3.125 μg/mL, Standard): 53.4%
RT activity % VC ([1]; viability corrected, 3.125 μg/mL, Turpin): 55.5%
RT activity % VC ([1]; viability corrected, 6.25 μg/mL, Standard): 56.6%
RT activity % VC ([1]; viability corrected, 6.25 μg/mL, Turpin): 48.5%
RT activity % VC ([1]; viability corrected, 25 μg/mL, Turpin): 25.6%
resistance of naïve PBMC's to HIV-1 challenge [2]: up to 100%
% Control ([3]; 5 mg/mL): 171.3%
Mean RT ([3]; 5 mg/mL): 30167.3 cpm
% Control ([3]; 10 mg/mL): 63.8%
Mean RT ([3]; 10 mg/mL): 11241 cpm
% Control ([3]; 20 mg/mL): 51.2%
Mean RT ([3]; 20 mg/mL): 9014.3 cpm
% Control, Sum ([3]; Sum over 20, 10, 5 mg/mL): 286.3%
Mean RT, Sum ([3]; Sum over 20, 10, 5 mg/mL): 50422.6 cpm
